Experimental data: patent publication US20260072027A1, “Peptides And Method” (Queen Mary University of London, priority 2022, published 2026)
Entries after “also recorded” stand apart in the source; their conditions may differ. Where no end group is shown, it is not given here.

B1: oxPTM-INSP-3, peptide 3 oxidised in house (oxidant not specified at the place) (peptide)
peptide: SLYQLENYCN
modifications: not fully specified (N-terminus); also: oxidised in house (CuCl2, H2O2, NaOCl), modified residues not defined

Experiments:
CD4+ T-cells (PBMCs) = assay: In vitro peptide stimulation and T-cell proliferation assay, CD4+; type: cell-based, human; conditions: Type 1 diabetes (N = 18)
Description: (§1) In vitro peptide stimulation and T-cell proliferation assay. Peripheral blood mononuclear cells (PBMCs) were freshly isolated from type 1 diabetes and healthy individuals using Ficoll-Hypaque density gradient centrifugation. PBMCs were labelled with the fluorescent dye CellTrace Violet (Invitrogen, Thermo Fisher Scientific) and cultured (2×10^5 cells/well) in round-bottom 96-well plates (Falcon, Becton Dickinson) with RPMI-1640 medium (Gibco, Thermo Fisher Scientific) supplemented with 5% autologous plasma in the presence or not of insulin peptides (20 μg/ml); PPD (10 μg/ml) and anti-CD3 (0.1 μg/ml; clone OKT3) were used as positive control. Two scrambled peptides: […] (SEQ ID NO: 17), […] (SEQ ID NO: 18), and the Exendin 9-39 fragment were used as negative controls. After 7 days, PBMCs were stained with PE-Cy7 anti-CD8 (clone RPA-T8, BD Pharmingen) and FITC anti-CD3 (clone UCHT1, BD Pharmingen). Samples were analysed by using a FACSCanto II (BD Bioscience) to evaluate T-cell proliferation measured as CellTrace Violet dilution. Cytofluorimetric analyses were performed using FlowJo Software (FlowJo, LLC). The results were given as stimulation index (SI), calculated as percentage of stimulated T-cell subset proliferation/percentage of unstimulated T-cell subset proliferation. Assay for detection of peptide specific T cells subsets was done as previously described (detailed in ESM methods, Assay for detection of peptide specific T cells)
(§2) T-cell stimulation with oxPTM-INSPs. To evaluate the immune cell response against the oxPTM-INSPs, we performed CD4+ and CD8+ T cells proliferation experiments using freshly isolated PBMCs (Study cohort 2, Table 1). Response was calculated as stimulatory index (SI) over unstimulated T-cells.

[1] = test system: CD4+ and CD8+ T-cells and IgG autoantibodies; assay: Overlap of CD4+, CD8+ and IgG antibody responses (Venn analysis); type: cell-based, human; conditions: type 1 diabetes
Description: FIG. 13. Venn diagrams of CD4^+, CD8^+ and antibody response to oxPTM-INSPs. Panels a, b, and c show the overlap between IgG autoantibody and T-cell (CD4^+ and CD8^+) responses specific to oxPTM-INSP-3 (a), Nt-INSP-4 (b) and oxPTM-INSP-6 (c). Panels d, e, and f display the overlap between T-cell responses to the three insulin peptides and IgG to oxPTM-INS modified by hydroxyl radical (^●OH-INS). […] There is concordance between reactivity to oxPTM-INS and CD4^+ and CD8^+ reactivity for all three tested peptides (7/17, 8/18 and 8/18 for oxPTM-INSP-3, Nt-INSP-4 and oxPTM-INSP-6, respectively). The stimulatory index >1 was used for definition of positive T-cell response.
Correlation between T-cell stimulation and antibody response. Subjects evaluated for T-cell stimulation were also tested for antibody reactivity to either oxPTM-INSPs or oxidised intact insulin (oxPTM-INS) to assess correlations between humoral and cellular responses (FIG. 11-e-f). In study cohort 2, antibody reactivity to oxPTM-INSP-6 was the highest as observed in the study cohort 1, with 11/18 (61.1%) binding to at least one oxPTM-INSP-6 derivatives (p<0.001 oxPTM-INSP-6 vs. Nt-INSP-6). Detailed analysis of autoantibody response in this cohort is described in the ESM (ESM results Antibody binding to oxPTM-INSPs in Study cohort 2).
We then analysed the extent of correlation between CD4^+, CD8^+ and IgG antibody responses. […] The CD4^+ T cell response to Nt-INSP-4 frequently overlapped with CD8^+ (13/18 [72.2%]), and to a lesser extent to antibodies (7/18 [38.8%]). […] CD4^+ response to oxPTM-INSP-6 was linked to both CD8^+ and/or antibodies: […] patients had concordant CD4^+ and CD8^+ responses, while 9/18 (50%) patients had concordant CD4^+ and antibody responses. […] CD4^+ T-cell stimulation to Nt-INSP-4, oxPTM-INSP-6 and oxPTM-INSP-3 was associated with antibody reactivity to oxPTM-INS in 8/18 (44.4%), 8/18 (44.4%) and 7/18 (38.9%) type 1 diabetes patients.

[2] = test system: autoantibodies to oxPTM-INS; assay: Competitive displacement ELISA, plate coated with oxidised insulin; type: binding, human
Method: A competitive displacement assay was performed to map the exact epitope, namely the exact amino acid sequence binding specificities and to test the binding to native peptides versus oxidised insulin peptides. The binding to the peptide was done by direct ELISA on the native or modified peptides or by competition ELISA. Initially native synthetic peptide was oxidised by exposing to 0.05 mM CuCl2; 90 mM H2O2; 10 mM NaOCl. Native and modified peptides were fractionated by AKTA to evaluated changes in molecular profile. AKTA fractions were then tested by ELISA for reactivity (FIGS. 2 and 3). We next perform competition ELISA with the native peptides and peptides exposed to 0.05 mM CuCl2; 90 mM H2O2; 10 mM NaOCl. Serum samples were pre-incubated with either native insulin peptides or oxidised insulin peptides. Finally, based on the amino acid sequence of the identified peptides we predicted the amino acids that would be oxidised by ^●OH and HOCl and designed synthetic peptides that contain the oxidised amino acids in the synthesis. Synthetic peptides were produced by standard commercially available methods, specifically by Peptide Protein Research Ltd. Briefly, peptide synthesis was performed by automated solid phase peptide synthesis (SPPS), which was followed by purification. Each individual amino acid was added to the growing chain according to the sequence. Where specified, dihydroxyphenylalanine was added to replace Tyr or cysteate were added to replace Cys. Similarly, these peptides were tested by competition ELISA. The table below describe the different competition ELISA performed:
Serum samples from children with type 1 diabetes were pre-incubated with the synthetic peptides before they were added to the native insulin or oxidised that were previously coated on the ELISA plate. If the antibodies in the serum sample bind to the peptide they will no longer bind to the insulin or oxidised insulin on the plate-competition ELISA. 1:200 dilutions of serum samples from T1D serum samples were pre-incubated for 2 hr at room temperature with the various peptides as shown in the table above. After incubation, serum/peptide mix was added to the ELISA plate previously coated overnight with either native insulin or oxidised insulin for an additional 2 hr incubation. Plates were then washed in a plate washer three times with PBS 0.05% tween. After washing, 100 ul of anti-human IgG diluted 1:1000 in 1% milk-PBS 0.05% tween were added for additional 1 hour and 30 min incubation. After washing, ELISA was developed by adding 100 ul of TMB (10 mg/ml in DMSO) in 10 ml of 0.1 M sodium acetate plus 2 ul of H2O2. Reaction was stopped by adding 0.5 M H2SO4 (usually 20 min for insulin ELISA).
To assess the binding specificity of serum samples to identified peptides, a competitive ELISA was performed. The ELISA was carried out following the method described above, except that the serum samples were pre-incubated for 2 h with and without 10 μg/ml peptides as competitors, before adding the serum samples to the insulin coated ELISA plate.

CD8+ T-cells (PBMCs) = assay: In vitro peptide stimulation and T-cell proliferation assay, CD8+; type: cell-based, human
Description: as §1, §2

[3] = target: Serum IgG autoantibodies of subjects with type 1 diabetes (human); assay: competitive ELISA, T1D serum pre-incubated with peptide, plate coated with oxidised insulin (FIG. 2A)
[4] = target: Serum IgG autoantibodies of subjects with type 1 diabetes (human); assay: competitive ELISA, T1D serum pre-incubated with peptide, plate coated with oxidised insulin (Example 3)

Row | Molecule | CD4+ T-cell response, subjects with SI > 3 (%) (CD4+ T-cells (PBMCs)) | concordance between reactivity to oxPTM-INS and CD4+ and CD8+ reactivity (patients/patients) ([1]; Study cohort 2) | patients with CD4+ T-cell stimulation associated with antibody reactivity to oxPTM-INS ([1]; Study cohort 2) | patients with CD4+, CD8+ T-cells to the peptide and autoantibodies to oxPTM-INS simultaneously ([1]; Study cohort 2) | patients with concordant CD4+ and antibody responses to the peptide ([1]; Study cohort 2) | patients with concordant CD4+, CD8+ and IgG antibody response to the peptide ([1]; Study cohort 2) | patients with overlapping (concordant) CD4+ and CD8+ responses to the peptide ([1]; Study cohort 2, SI >1) | inhibition of type 1 diabetes serum binding to oxPTM-INS (in words) ([2]; sera pre-incubated with peptide competitor) | reduced binding to oxidised whole insulin ([2]; type 1 diabetes sera pre-incubated with peptide) | CD8+ T-cell response, subjects with SI > 1 (%) (CD8+ T-cells (PBMCs); Controls (N = 11)) | CD8+ T-cell response, subjects with SI > 1 (%) (CD8+ T-cells (PBMCs); Type 1 diabetes (N = 18)) | % reduction of serum binding to oxidised whole insulin [3] | % reduction of serum binding to oxidised whole insulin [4]
1 | oxPTM-INSP-6: oxidised forms of insulin peptide 6 (B:21-30), in house oxidised or in silico derivatives (ERGFFYTPKT; not fully specified (N-terminus); also: oxidised forms, in house oxidised or in silico derivatives, modified residues not defined) | 66.7% | 8/18 | 44.4% | 33.3% | 50% | 44.4% | 72.2% | strongly inhibited binding to oxPTM-INS; also recorded: able to inhibit the binding | 35-75% | 27.3% | 72.2% |  | 
2 | B1 |  |  |  |  |  |  |  |  |  |  |  | 35 to 80% | 40 to 80%
